The values that follow come from article PMC6271944 (Molecules, 2014).

SMILES strings stand for the structures.

For one series, the target named is T1, CYP2D6 (Homo sapiens, UniProt P10635).
T1 construct: Pooled human liver microsomes (HLM, LOT 32556) were purchased from BD Gentest Corporation; tissue BD Gentest Corporation LOT 32556; host or cells: pooled human liver microsomes
Description: CYP inhibition in human liver microsomes, substrate cocktail, LC-MS/MS (dextromethorphan). Format: in vitro ADME. The following applies: metabolite dextrorphan, read-out: IC50 for HLM, CYP2D6. An excerpt:
(§1) Positive controls (furafyline for CYP1A2, montelukast for CYP2C8, sulfaphenazole for CYP2C9, S-(+)-N-3-benzylnirvanol for CYP2C19, quinidine for CYP2D6, ketoconazole for CYP3A4) and specific substrates (phenacetin for CYP1A2, paclitaxel for CYP2C8, diclofenac for CYP2C9, S-mephenytoin for CYP2C19, dextromethorphan for CYP2D6, midazolam for CYP3A4) are consistent with our previous papers. The substrates were used at concentrations approximately equal to their respective Michaelis-Menten constant (Km) values: 10 μM phenacetin, 5 μM paclitaxel, 5 μM diclofenac, 200 μM S-mephenytoin, 5 μM dextromethorphan, and 2 μM midazolam. NADP^+ was added after a 15 min preincubation of all other components at 37 °C. After a given incubation time (30 min), the reactions were terminated by addition of 60 μL ice-cold acetonitrile containing gemfibrozil and buspirone as internal standards. Incubation samples were stored at −80 °C until used in liquid chromatography-tandem mass spectrometry (LC-MS/MS) analysis. The mixture was centrifuged at 3,500 rpm for 5 min. The supernatant was mixed with equal volume of a 1:1 mixture of methanol and water and 20 μL of the final mixture was used for LC-MS/ MS analysis. […]
(§2) The CYP inhibition potential were evaluated by measuring the formation of one or more metabolites of the test substrates. […]
A general note: Liver microsomes are a subcellular fraction often used to study metabolism.

A further series has as its target T2, CYP3A2 (Rattus norvegicus, UniProt P05183).
T2 sequence (P05183 1-504): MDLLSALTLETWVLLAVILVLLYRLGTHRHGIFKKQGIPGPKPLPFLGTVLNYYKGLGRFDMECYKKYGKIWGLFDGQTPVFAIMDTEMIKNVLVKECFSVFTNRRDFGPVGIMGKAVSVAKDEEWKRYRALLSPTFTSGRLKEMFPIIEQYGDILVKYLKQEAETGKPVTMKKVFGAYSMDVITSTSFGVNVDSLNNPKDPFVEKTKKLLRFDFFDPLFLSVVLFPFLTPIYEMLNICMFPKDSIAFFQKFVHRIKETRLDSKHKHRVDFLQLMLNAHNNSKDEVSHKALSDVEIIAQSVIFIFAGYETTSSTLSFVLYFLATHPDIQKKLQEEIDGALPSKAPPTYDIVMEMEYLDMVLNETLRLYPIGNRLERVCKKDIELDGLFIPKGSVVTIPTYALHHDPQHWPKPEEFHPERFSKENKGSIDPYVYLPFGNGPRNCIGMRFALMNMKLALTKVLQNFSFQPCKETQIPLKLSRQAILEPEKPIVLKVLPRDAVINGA
Description: CYP inhibition in rat liver microsomes, substrate cocktail, LC-MS/MS (midazolam). Format: in vitro ADME. The note with it: pH 7.4, probe midazolam 2 μM, read-out: IC50 for RLM, CYP3A2 (table row CYP3A4).
Excerpt: as §1, §2

A further series has as its system UGT1A9. Also noted: dose or concentration left out as unconfirmed. The note with it: cited from earlier work.
The target in a further series is T3, CYP3A4 (Homo sapiens, UniProt P08684).
T3 construct: Pooled human liver microsomes (HLM, LOT 32556) were purchased from BD Gentest Corporation; tissue BD Gentest Corporation LOT 32556; host or cells: pooled human liver microsomes
T3 sequence (P08684 whole entry): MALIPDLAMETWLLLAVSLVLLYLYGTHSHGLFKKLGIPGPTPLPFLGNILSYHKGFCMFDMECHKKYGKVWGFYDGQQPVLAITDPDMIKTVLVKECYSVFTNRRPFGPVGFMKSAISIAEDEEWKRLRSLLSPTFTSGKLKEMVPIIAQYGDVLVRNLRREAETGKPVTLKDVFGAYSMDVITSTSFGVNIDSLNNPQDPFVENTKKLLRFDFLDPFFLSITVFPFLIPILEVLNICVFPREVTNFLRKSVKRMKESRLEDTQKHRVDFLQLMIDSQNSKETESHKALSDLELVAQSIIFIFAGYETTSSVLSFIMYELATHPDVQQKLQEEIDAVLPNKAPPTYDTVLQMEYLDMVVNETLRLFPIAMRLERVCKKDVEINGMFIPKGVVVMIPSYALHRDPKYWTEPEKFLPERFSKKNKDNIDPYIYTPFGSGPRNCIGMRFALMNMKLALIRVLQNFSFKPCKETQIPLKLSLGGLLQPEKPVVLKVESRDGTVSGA
Description: CYP inhibition in human liver microsomes, substrate cocktail, LC-MS/MS (midazolam). Format: in vitro ADME. The note with it: metabolite 1-hydroxymidazolam, read-out: IC50 for HLM, CYP3A4.
Excerpt: as §1, §2

Another series deals with CYP2C79. Description: CYP inhibition in rat liver microsomes, substrate cocktail, LC-MS/MS (S-mephenytoin). In kind it is in vitro ADME. The following applies: pH 7.4, probe S-mephenytoin 200 μM, 95% CI in brackets, read-out: IC50 for RLM, CYP2C79 (table row CYP2C19).
Excerpt: as §1, §2

A further series deals with WM-266-4 cells. Description: Cytotoxicity on WM-266-4 cells. In kind it is cell-based, human. The following applies: even at highest concentration.
The target in the next series is T4, CYP2C7 (Rattus norvegicus, UniProt P05179).
T4 construct: Pooled rat liver microsomes were prepared from three male Sprague-Dawley rats; from tissue; host or cells: pooled liver microsomes of three male Sprague-Dawley rats, prepared at HD Biosciences Co
T4 sequence (P05179 1-490): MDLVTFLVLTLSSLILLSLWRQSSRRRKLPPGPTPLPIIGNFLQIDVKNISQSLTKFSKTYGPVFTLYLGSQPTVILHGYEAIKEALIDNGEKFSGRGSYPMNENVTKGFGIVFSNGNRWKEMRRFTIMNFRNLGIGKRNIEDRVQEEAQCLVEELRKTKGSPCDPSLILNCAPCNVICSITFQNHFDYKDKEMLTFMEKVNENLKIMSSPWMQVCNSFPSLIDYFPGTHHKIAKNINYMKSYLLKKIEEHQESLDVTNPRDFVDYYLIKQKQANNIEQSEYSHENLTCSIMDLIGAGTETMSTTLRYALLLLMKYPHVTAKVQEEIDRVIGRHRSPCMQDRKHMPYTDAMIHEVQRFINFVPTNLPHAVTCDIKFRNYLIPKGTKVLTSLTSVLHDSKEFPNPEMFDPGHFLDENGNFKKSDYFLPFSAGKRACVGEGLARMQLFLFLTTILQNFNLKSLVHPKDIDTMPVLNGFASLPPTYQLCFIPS
Description: CYP inhibition in rat liver microsomes, substrate cocktail, LC-MS/MS (paclitaxel). Format: in vitro ADME. The note with it: 95% CI in brackets, read-out: IC50 for RLM, CYP2C7 (table row CYP2C8).
Excerpt: as §1, §2

T1 sequence (P10635 whole entry): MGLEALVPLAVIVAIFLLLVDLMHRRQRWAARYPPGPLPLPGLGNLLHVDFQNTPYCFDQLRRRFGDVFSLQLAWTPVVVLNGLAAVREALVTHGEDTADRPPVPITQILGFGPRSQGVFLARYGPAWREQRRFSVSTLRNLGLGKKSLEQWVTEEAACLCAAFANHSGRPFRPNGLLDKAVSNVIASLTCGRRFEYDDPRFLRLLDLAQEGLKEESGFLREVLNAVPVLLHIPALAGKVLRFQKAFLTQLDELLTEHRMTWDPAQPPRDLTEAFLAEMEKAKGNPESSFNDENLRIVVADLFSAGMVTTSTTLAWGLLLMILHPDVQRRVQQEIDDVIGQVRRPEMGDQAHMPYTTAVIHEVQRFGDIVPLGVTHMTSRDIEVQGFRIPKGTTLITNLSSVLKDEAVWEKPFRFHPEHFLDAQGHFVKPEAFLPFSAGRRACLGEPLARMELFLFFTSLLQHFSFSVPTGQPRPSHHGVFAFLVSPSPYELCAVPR

Broadly, the IC50 is the point on the concentration scale where inhibition reaches its midpoint. As to `O=C(O)[C@H]1O[C@@H](Oc2cc3oc(-c4ccc(O)cc4)cc(=O)c3c(O)c2O)[C@H](O)[C@@H](O)[C@@H]1O` [scutellarin, Scutellarin], the results for the IC50 at CYP2D6, on CYP3A4 and at CYP2C7 were > 100 µM, > 100 µM and 63.1 µM, respectively. The IC50 at 30 min at CYP3A2 is > 100 µM; in the series with CYP2C79 it was 85.6 µM. In addition, the “inhibition towards the activity of UGT1A9” value in the series with UGT1A9 was 36.1%. Moreover, the “cytotoxicity on WM-266-4 cells” value with WM-266-4 cells is reported as “does not show cytotoxicity”.
